The results in this text go back to patent US4719200A, “Amino acid derivatives and antihypertensive drugs containing the same” (Ajinomoto Co., Inc., priority 1984, dated 1988).

This test deals with spontaneously hypertensive rates (SHR rats). The test can be described thus: Measurement of change in blood pressure (systolic, indirect, conscious rats) after one oral dose. It counts as in vivo, rat. The note with it: for Δ Blood Pressure (systolic): lowest value minus value before administration; for Systolic Blood Pressure, Lowest Value: after administration. The method, then:
The antihypertensive activities of the amino acid derivatives as prepared above were determined.
As subject animals, there were used 5 spontaneously hypertensive rates (SHR rats) which had been sufficiently trained and confirmed to be hypertensive (mode, the body weight of 400 g) per a sample.
As an instrument for measuring the blood pressure there was used Programmed Electro-Sphygmomanometer PE-300 (Narco Co., U.S.A.), and the blood pressure was indirectly measured on conscious rats.
An aqueous solution of a sample (0.05 m mole/kg) was once force-fed into the stomach by means of a […] probe. As a control, the water as deionized was fed to the same animals as above.

Where [1] appears, read: SHR rats, single force-feeding into the stomach, 0.05 m mole/kg.
Setting [2] is: SHR rats, 5 per sample, before single force-feeding into the stomach of 0.05 m mole/kg aqueous solution.
Setting [3] is: second table (Examples 25-43), before administration.

Square brackets hold non-standard residues; d marks the D form. Peptide text beside a SMILES is read from it. * marks the point of attachment. pGlu = O=C1CC[C@@H](C(=O)O)N1; Cbz = O=C(OCc1ccccc1)*; PhAc = O=C(Cc1ccccc1)*; Boc = CC(C)(C)OC(=O)*; Propionyl = CCC(=O)*; Bz = O=C(c1ccccc1)*

For `CCOC(=O)N[C@@H](C)C(=O)N1CCC[C@H]1C(=O)N1CCC[C@H]1C(=O)O` [Example 1, N-ethoxycarbonyl-L-alanyl-L-prolyl-L-proline], under setting [1], the “Systolic Blood Pressure, Lowest value after administration” value is given as 155 mm Hg and the “Δ Blood Pressure (systolic)” value is -38 mm Hg.

Turning to `CC(=O)N[C@@H](C)C(=O)N1CCC[C@H]1C(=O)N1CCC[C@H]1C(=O)O` [Example 3, N-acetyl-L-alanyl-L-prolyl-L-proline] (Ac-Ala-Pro-Pro-OH), under setting [1], the “Systolic Blood Pressure, Lowest value after administration” value worked out at 160 mm Hg and the “Δ Blood Pressure (systolic)” value was -41 mm Hg.

Regarding `CCC(=O)N[C@@H](C)C(=O)N1CCC[C@H]1C(=O)N1CCC[C@H]1C(=O)O` [Example 4, N-propionyl-L-alanyl-L-prolyl-L-proline] (Propionyl-Ala-Pro-Pro-OH), under setting [1], the “Systolic Blood Pressure, Lowest value after administration” value is 173 mm Hg and the “Δ Blood Pressure (systolic)” value was -24 mm Hg.

In the case of `C[C@H](NC(=O)c1ccccn1)C(=O)N1CCC[C@H]1C(=O)N1CCC[C@H]1C(=O)O` [Example 5, N-picolinoyl-L-alanyl-L-prolyl-L-proline], under setting [1], the “Systolic Blood Pressure, Lowest value after administration” value was found to be 175 mm Hg and the “Δ Blood Pressure (systolic)” value is -22 mm Hg.

On to `C[C@H](NC(=O)c1cccs1)C(=O)N1CCC[C@H]1C(=O)N1CCC[C@H]1C(=O)O` [Example 6, N-(2-thenoyl)-L-alanyl-L-prolyl-L-proline], for which, under setting [1], the “Systolic Blood Pressure, Lowest value after administration” value is 182 mm Hg and the “Δ Blood Pressure (systolic)” value is reported as -20 mm Hg.

For the compound `C[C@H](NC(=O)c1ccco1)C(=O)N1CCC[C@H]1C(=O)N1CCC[C@H]1C(=O)O` [Example 7, N-(2-furoyl)-L-alanyl-L-prolyl-L-proline], under setting [1], the “Systolic Blood Pressure, Lowest value after administration” value is recorded as 177 mm Hg and the “Δ Blood Pressure (systolic)” value was -28 mm Hg.

`C[C@@H](C(=O)N1CCC[C@H]1C(=O)N1CCC[C@H]1C(=O)O)N1C(=O)c2ccccc2C1=O` [Example 8, N-phthaloyl-L-alanyl-L prolyl-L-proline]: the “Systolic Blood Pressure, Value Before Administration” value under setting [2] is on record as 225 mm Hg. For the same compound, under setting [1], the “Hours after administration (of lowest systolic blood pressure value)” value (from here on “Hours after administration”) worked out at 4 h; the “Systolic Blood Pressure, Lowest value after administration” value is listed as 207 mm Hg; the “Δ Blood Pressure (systolic)” value is on record as -18 mm Hg.

Regarding `CCS(=O)(=O)N[C@@H](C)C(=O)N1CCC[C@H]1C(=O)N1CCC[C@H]1C(=O)O` [Example 12, N-ethanesulfonyl-L-alanyl-L prolyl-L-proline], the “Systolic Blood Pressure, Value Before Administration” value under setting [2] is recorded as 204 mm Hg. Also, under setting [1], the “Hours after administration” value was found to be 24 h; the “Systolic Blood Pressure, Lowest value after administration” value was 159 mm Hg; the “Δ Blood Pressure (systolic)” value is on record as -45 mm Hg.

With `C[C@H](NC(=O)c1ccccc1)C(=O)N1CCC[C@H]1C(=O)N1CCC[C@H]1C(=O)O` [Example 13, N-benzoyl-L-alanyl-L-prolyl-L-proline] (Bz-Ala-Pro-Pro-OH), under setting [1], the “Systolic Blood Pressure, Lowest value after administration” value amounted to 177 mm Hg and the “Δ Blood Pressure (systolic)” value is -43 mm Hg.

For `C[C@H](NC(=O)Cc1ccccc1)C(=O)N1CCC[C@H]1C(=O)N1CCC[C@H]1C(=O)O` [Example 14, N-phenylacetyl-L-alanyl-L-prolyl-L-proline] (PhAc-Ala-Pro-Pro-OH), under setting [1], the “Systolic Blood Pressure, Lowest value after administration” value worked out at 175 mm Hg and the “Δ Blood Pressure (systolic)” value is given as -24 mm Hg.

On to `C[C@H](NC(=O)OCc1ccccc1)C(=O)N1CCC[C@H]1C(=O)N1CCC[C@H]1C(=O)O.NC(N)=NCCC[C@H](N)C(=O)O` [Example 15, N-benzyloxycarbonyl-L-alanly-L-prolyl-L-proline L-arginine salt] (Cbz-Ala-Pro-Pro-OH), for which the “Systolic Blood Pressure, Value Before Administration” value under setting [2] amounted to 205 mm Hg. Under setting [1], the “Hours after administration” value was 4 h; the “Systolic Blood Pressure, Lowest value after administration” value is listed as 172 mm Hg; the “Δ Blood Pressure (systolic)” value is -33 mm Hg.

As to `C[C@H](NC(=O)OC(C)(C)C)C(=O)N1CCC[C@H]1C(=O)N1CCC[C@H]1C(=O)O` [Example 16, N-t-butyloxycarbonyl-L-alanyl-L-prolyl-L-proline] (Boc-Ala-Pro-Pro-OH), under setting [1], the “Systolic Blood Pressure, Lowest value after administration” value is recorded as 173 mm Hg and the “Δ Blood Pressure (systolic)” value is -21 mm Hg.

Take `C[C@H](NC(=O)[C@@H]1CCC(=O)N1)C(=O)N1CCC[C@H]1C(=O)N1CCC[C@H]1C(=O)O` [Example 21, L-pyroglutamyl-L-alanyl-L-prolyl-L-proline] ([pGlu]APP-OH): under setting [1], the “Systolic Blood Pressure, Lowest value after administration” value is on record as 190 mm Hg and the “Δ Blood Pressure (systolic)” value was -29 mm Hg.

In the case of `CC[C@H](C)[C@H](NC(=O)c1ccccc1)C(=O)N1CCC[C@H]1C(=O)N1CCC[C@H]1C(=O)O` [Example 25, N--benzoyl-L-isoleucyl-L-prolyl-L-proline] (Bz-Ile-Pro-Pro-OH), under “second table (Examples 25-43)”, the “Hrs. After Admin. (of lowest systolic blood pressure value)” value was found to be 8 h; the “Systolic Blood Pressure, Lowest Value” amounted to 201; the “Δ Blood Pressure (systolic)” value was -28. Besides, under setting [3], the “Systolic Blood Pressure, Value Before Administration” value was determined as 229.

As for `O=C(N[C@@H](Cc1ccccc1)C(=O)N1CCC[C@H]1C(=O)N1CCC[C@H]1C(=O)O)c1ccccc1.[Na]` [Example 26, N--Benzoyl-L-phenylalanyl-L-prolyl-L-proline sodium salt] (Bz-Phe-Pro-Pro-OH), for the setting “second table (Examples 25-43)”, the “Hrs. After Admin. (of lowest systolic blood pressure value)” value was determined as 8 h; the “Systolic Blood Pressure, Lowest Value” is given as 194; the “Δ Blood Pressure (systolic)” value is -34. In addition, the “Systolic Blood Pressure, Value Before Administration” value under setting [3] is given as 228.

As to `O=C(NCC(=O)N1CCC[C@H]1C(=O)N1CCC[C@H]1C(=O)O)c1ccccc1` [Example 27, N--benzoyl-glycyl-L-prolyl-L-proline] (Bz-Gly-Pro-Pro-OH), for the setting “second table (Examples 25-43)”, the “Hrs. After Admin. (of lowest systolic blood pressure value)” value is 8 h; the “Systolic Blood Pressure, Lowest Value” worked out at 209; the “Δ Blood Pressure (systolic)” value is listed as -23. Besides, under setting [3], the “Systolic Blood Pressure, Value Before Administration” value is on record as 232.

For the compound `O=C(O)CC[C@H](NC(=O)c1ccccc1)C(=O)N1CCC[C@H]1C(=O)N1CCC[C@H]1C(=O)O` [Example 28, N--benzoyl-L-glutamyl-L-prolyl-L-proline] (Bz-Glu-Pro-Pro-OH), under “second table (Examples 25-43)”, the “Hrs. After Admin. (of lowest systolic blood pressure value)” value is 8 h; the “Systolic Blood Pressure, Lowest Value” is recorded as 196; the “Δ Blood Pressure (systolic)” value is -39. The “Systolic Blood Pressure, Value Before Administration” value under setting [3] was 235.

For the compound `O=C(O)[C@@H]1CCCN1C(=O)[C@@H]1CCCN1C(=O)[C@H](CO)NCc1ccccc1` [Example 29, N--benzyl-L-seryl-L-prolyl-L-proline], for the setting “second table (Examples 25-43)”, the “Hrs. After Admin. (of lowest systolic blood pressure value)” value stood at 8 h; the “Systolic Blood Pressure, Lowest Value” is given as 192; the “Δ Blood Pressure (systolic)” value is reported as -22. The “Systolic Blood Pressure, Value Before Administration” value under setting [3] is recorded as 214.

Take `CCOC(=O)N[C@H](C(=O)N1CCC[C@H]1C(=O)N1CCC[C@H]1C(=O)O)[C@@H](C)CC.[Na]` [Example 30, N--ethoxycarbonyl-L-isoleucyl-L-prolyl-L-proline sodium salt]: under “second table (Examples 25-43)”, the “Hrs. After Admin. (of lowest systolic blood pressure value)” value was determined as 4 h; the “Systolic Blood Pressure, Lowest Value” came out at 208; the “Δ Blood Pressure (systolic)” value was -16. For the same compound, under setting [3], the “Systolic Blood Pressure, Value Before Administration” value is on record as 224.

Take `CCOC(=O)N[C@@H](Cc1ccccc1)C(=O)N1CCC[C@H]1C(=O)N1CCC[C@H]1C(=O)O.[Na]` [Example 31, N--ethoxycarbonyl-L-phenylalanyl-L-prolyl-L-proline sodium salt]: for the setting “second table (Examples 25-43)”, the “Hrs. After Admin. (of lowest systolic blood pressure value)” value is 24 h; the “Systolic Blood Pressure, Lowest Value” is 199; the “Δ Blood Pressure (systolic)” value is -17. For the same compound, the “Systolic Blood Pressure, Value Before Administration” value under setting [3] came to 216.

For `CCOC(=O)NCC(=O)N1CCC[C@H]1C(=O)N1CCC[C@H]1C(=O)O.[Na]` [Example 32, N--ethoxycarbonyl-glycyl-L-prolyl-L-proline sodium salt], where the note is “second table (Examples 25-43)”, the “Hrs. After Admin. (of lowest systolic blood pressure value)” value is 8 h; the “Systolic Blood Pressure, Lowest Value” was 193; the “Δ Blood Pressure (systolic)” value was -22. In addition, under setting [3], the “Systolic Blood Pressure, Value Before Administration” value turned out to be 215.

Consider `CCOC(=O)N[C@@H](CCC(=O)O)C(=O)N1CCC[C@H]1C(=O)O` [Example 33, N--ethoxycarbonyl-L-glutamyl-L-proline], for which, where the note is “second table (Examples 25-43)”, the “Hrs. After Admin. (of lowest systolic blood pressure value)” value is 8 h; the “Systolic Blood Pressure, Lowest Value” stood at 202; the “Δ Blood Pressure (systolic)” value is on record as -18. The “Systolic Blood Pressure, Value Before Administration” value under setting [3] was 220.

As to `CCOC(=O)N[C@@H](CCCNC(=N)N)C(=O)N1CCC[C@H]1C(=O)N1CCC[C@H]1C(=O)O` [Example 34, N--ethoxycarbonyl-L-arginyl-L-prolyl-L-proline], under “second table (Examples 25-43)”, the “Hrs. After Admin. (of lowest systolic blood pressure value)” value turned out to be 4 h; the “Systolic Blood Pressure, Lowest Value” came to 192; the “Δ Blood Pressure (systolic)” value was -11. Further, the “Systolic Blood Pressure, Value Before Administration” value under setting [3] is given as 203.

As for `CCOC(=O)N[C@@H](CO)C(=O)N1CCC[C@H]1C(=O)N1CCC[C@H]1C(=O)O` [Example 35, N--Ethoxycarbonyl-L-seryl-L-prolyl-L-proline], under “second table (Examples 25-43)”, the “Hrs. After Admin. (of lowest systolic blood pressure value)” value is 8 h; the “Systolic Blood Pressure, Lowest Value” was 195; the “Δ Blood Pressure (systolic)” value is -25. In addition, under setting [3], the “Systolic Blood Pressure, Value Before Administration” value was determined as 220.
